Results on 78 compounds are retold here after the METLIN SMRT retention time set (Domingo-Almenara et al. 2019).

The data set is described as follows: gradient 5% acetonitrile 3 min, to 50% in 2 min, to 85% in 15 min, held 3 min, 100 µL/min. Conditions: column: Zorbax Extend-C18 2.1 x 50 mm; eluents: water / acetonitrile, 0.1% formic acid. In a few lines:
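The mobile phases were water and acetonitrile, each with 0.1% formic acid, pumped at 100 μL/min through a Zorbax Extend-C18 column (2.1 × 50 mm, 1.8 μm). Pure standards were injected as mixtures of ~100 molecules and detected by a quadrupole time-of-flight mass spectrometer in positive and negative ionization mode. Retention time came from computationally picked adduct peaks, each inspected by hand.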
As for `Cc1ccc(Nc2nc(NCCO)c3cnn(C)c3n2)cc1C`, the RP-LC retention time stood at 610 s.

As for `COc1ccc(NC(=O)C2CCN(S(=O)(=O)c3cn(C(C)C)cn3)CC2)cc1`, the RP-LC retention time came out at 711 s.

Take `CCOc1cccc(C(=O)Nc2nc(-c3ccc(OC)c(Br)c3)cs2)c1`: the RP-LC retention time stood at 1280 s.

`Cc1ccc(C)c(NC(=O)Cn2c(N3CCCC3)nc(C)cc2=O)c1` showed an RP-LC retention time of 656 s.

In turn, `Cc1ccc(C)c(NC(=O)C(=O)NCC(c2ccc3c(c2)OCO3)N2CCOCC2)c1` (stereo not drawn) had an RP-LC retention time of 693 s.

In the case of `Cc1ccc(NS(=O)(=O)c2cc3n(c2)CCCNC3=O)cc1C`, the RP-LC retention time was determined as 658 s.

`Cc1ccc(N2CC(c3nc(-c4ccccn4)no3)CC2=O)cc1Cl` (stereo not drawn) came in with an RP-LC retention time of 838 s.

`Cc1ccc(Cn2c(=O)n(CCNC(=O)C3CCC3)c3ncccc32)cc1` yielded an RP-LC retention time of 779 s.

`CCCCS(=O)(=O)N1CCCC(c2nnc(C)s2)C1` (stereo not drawn) showed an RP-LC retention time of 689 s.

In turn, `Cc1cc(C)nc(N2CCN(c3cccc(Cl)c3)CC2)n1` displayed an RP-LC retention time of 1060 s.

`Cc1cc(C)cc(N2CCC(NC(=O)Nc3cccc(C)c3C)C2=O)c1` (stereo not drawn): the RP-LC retention time worked out at 922 s.

In turn, `COc1ccc(NC(=O)C2CCN(S(=O)(=O)c3ccc4[nH]c(=O)sc4c3)CC2)c(OC)c1` came in with an RP-LC retention time of 774 s.

The compound `CC1(C)CC(=O)c2cn(-c3ccccc3)c(=O)c(C(=O)N3CCOCC3)c2C1` displayed an RP-LC retention time of 694 s.

`COCc1noc([C@@H]2CC(F)(F)CN2C(=O)c2conc2C)n1` yielded an RP-LC retention time of 679 s.

On to `COc1ccccc1N1CCN(c2cc(SCC(=O)Nc3cccc(Cl)c3C)ncn2)CC1`, for which the RP-LC retention time came to 1110 s.

Regarding `COc1ccc(-c2noc(Cc3nnc(-c4ccc(Cl)cc4)o3)n2)cc1`, the RP-LC retention time amounted to 1060 s.

The compound `CC(CCNC(=O)c1cc(S(=O)(=O)N2CCCC2)ccc1Cl)N1CCCC1` (stereo not drawn) displayed an RP-LC retention time of 601 s.

`CCC(C)Nc1nc(-c2ccc(OC)cc2)nc2ccccc12` (stereo not drawn) yielded an RP-LC retention time of 800 s.

Take `Cc1ccc(CNS(=O)(=O)c2cc3n(c2)CCCN(C)C3=O)cc1`: the RP-LC retention time was 711 s.

Take `CCCN1CCN(c2ncc3c(n2)CCN(Cc2cc(F)cc(F)c2)C3)CC1`: the RP-LC retention time is 549 s.

`O=C(Cn1ncc2c(N3CCN(c4ccccn4)CC3)ncnc21)Nc1ccc(C(F)(F)F)cc1` returned an RP-LC retention time of 669 s.

Consider `Cc1ccc(-c2noc(CCN3CCN(c4ncccn4)CC3)n2)cc1`, for which the RP-LC retention time was found to be 677 s.

In the case of `COc1ccc(OC)c(-c2cc(C(=O)NCCn3cnc(-c4ccccc4)cc3=O)[nH]n2)c1`, the RP-LC retention time was determined as 736 s.

On to `CC(C)N1CCC2(CC1)N=C(c1ccc3c(c1)OCO3)CC(c1ccccc1O)N2` (stereo not drawn), for which the RP-LC retention time amounted to 593 s.

Regarding `O=C(CN1C(=O)COc2ccc(C(=O)N3CCCC3)cc21)NCCc1ccc(Cl)cc1`, the RP-LC retention time was 765 s.

As to `COCC(=O)NC1CCC12CCN(S(=O)(=O)c1cn(C)cn1)CC2` (stereo not drawn), the RP-LC retention time was determined as 623 s.

For the compound `O=C1NC2(CCN(C(=O)NCCc3ccccc3)CC2)Nc2c(Cl)cccc21`, the RP-LC retention time worked out at 773 s.

As for `CC(=O)N1c2ccc(S(=O)(=O)N3CCCCCC3)cc2CC1C(=O)NCCc1ccc(C)cc1` (stereo not drawn), the RP-LC retention time turned out to be 957 s.

On to `Cc1ccccc1-n1ccn(Cc2nc(-c3cccc(F)c3)no2)c(=O)c1=O`, for which the RP-LC retention time stood at 837 s.

The compound `COc1ccccc1CC(=O)N1CCC(Nc2ncnc3c2CCC3)C1` (stereo not drawn) displayed an RP-LC retention time of 570 s.

In turn, `Cc1cn2c(S(=O)(=O)NC3CCCCC3)c(C(C)C)nc2s1` registered an RP-LC retention time of 999 s.

As to `CCn1nc(C)c(CCNC(=O)c2ccc(-c3ccc4c(c3)CCN4C(C)=O)cc2)c1C`, the RP-LC retention time worked out at 676 s.

In the case of `COc1ccc(Cl)cc1NC(=O)N1CCCC(C)(C(=O)NCc2ccc(F)cc2)C1` (stereo not drawn), the RP-LC retention time was determined as 1020 s.

`CCc1nc(-c2csc(S(=O)(=O)N3CCCC(C(=O)Nc4ccc(Cl)cc4C)C3)c2)no1` (stereo not drawn) showed an RP-LC retention time of 1100 s.

Turning to `O=C(Nc1ccc(F)cc1F)N1CCc2nc(-c3ccccc3)ncc2C1`, the RP-LC retention time was 881 s.

For the compound `CCC(C)NC(=O)c1c(O)c2cccnc2n(-c2ccc(OC)cc2)c1=O` (stereo not drawn), the RP-LC retention time came out at 1140 s.

`CCOC(=O)c1cccc(NC(=O)CCc2c(-c3ccccc3)nc3ccccn23)c1` returned an RP-LC retention time of 984 s.

`COc1c(C(=O)NCc2ccccc2C)sc2cccc(F)c12` came in with an RP-LC retention time of 1130 s.

Regarding `CCOC(=O)c1cnc2nc(C)ccc2c1Nc1ccc(F)c(Cl)c1`, the RP-LC retention time worked out at 764 s.

`CCCNC(=O)c1cn(CCC)nc1S(=O)(=O)N1CCN(c2ccccc2OCC)CC1` came in with an RP-LC retention time of 1080 s.

The compound `CCc1cc(N2CCN(C(=O)c3ccc(N(C)C)cc3)CC2)nc2nnc(C)n12` registered an RP-LC retention time of 599 s.

Consider `COc1ccc(N2CC(c3nnc(NC(=O)c4ccccc4Br)o3)CC2=O)cc1` (stereo not drawn), for which the RP-LC retention time turned out to be 703 s.

`COC(=O)c1ccc(OC)c(Cn2cnc3c(-c4ccc(C)cc4)csc3c2=O)c1` came in with an RP-LC retention time of 1070 s.

Consider `COc1ccc(NC(=O)NCCn2c(C)nc3ccccc32)c(OC)c1`, for which the RP-LC retention time was 604 s.

In turn, `O=C(NCc1ccc(F)cc1)C(=O)NCC1OCCN1C(=O)c1cccs1` (stereo not drawn) had an RP-LC retention time of 702 s.

In turn, `COc1cc(C(=O)Nc2nc3c(s2)Cc2c(Br)ccc(OC)c2-3)cc(OC)c1OC` yielded an RP-LC retention time of 1170 s.

`Cc1ccc(F)cc1NS(=O)(=O)c1cc(-c2[nH]ncc2C(=O)N2CCCC2)oc1C` displayed an RP-LC retention time of 739 s.

For `O=C(Cn1ccc2ccc(N3CCOCC3)nc21)NCc1cccc(Br)c1`, the RP-LC retention time was 918 s.

Take `O=C(CN1C(=O)CCCc2cc(S(=O)(=O)N3CCCCCC3)ccc21)NCc1ccc(F)cc1`: the RP-LC retention time came to 919 s.

As to `CC(=O)Nc1ccc(NC(=O)C2CC(=O)N(c3ccc4c(c3)CCN4C(=O)C3CC3)C2)cc1` (stereo not drawn), the RP-LC retention time stood at 658 s.

The compound `CCOc1ccccc1N1CCN(S(=O)(=O)c2nn(C)cc2C(=O)NCCC(C)C)CC1` gave an RP-LC retention time of 1080 s.

`Cc1cccc(NC(=O)Cn2nc(N3CCCC(C)C3)c3ccccc3c2=O)c1C` (stereo not drawn) showed an RP-LC retention time of 1120 s.

As for `CCN(CC)CCNC(=O)c1c(C)oc2c1C(=O)c1ccccc1C2=O`, the RP-LC retention time was determined as 635 s.

With `CC(=O)Nc1ccc(-c2noc(C3CCN(C(=O)C4(c5ccccc5)CC4)CC3)n2)cc1`, the RP-LC retention time was 837 s.

`COc1ccc(-c2noc(C3CCCN3C(=O)c3ccc(N(C)C)cc3)n2)cc1OC` (stereo not drawn) came in with an RP-LC retention time of 881 s.

Regarding `Cc1ccc(CC#N)c(-c2c(CC#N)ccc(C)c2C)c1C`, the RP-LC retention time was found to be 1170 s.

For the compound `CCOC(=O)C1=C(CN2CCCC(c3ccccc3)C2)NC(=O)NC1c1cccc(OC)c1OC` (stereo not drawn), the RP-LC retention time was determined as 695 s.

In turn, `Cc1coc2c(C)c3oc(=O)c(CCC(=O)NCCc4c[nH]c5ccccc45)c(C)c3cc12` returned an RP-LC retention time of 964 s.

`CCc1cc(=O)n(CC(=O)Nc2ccc(Cl)cc2)c(-c2ccccc2)n1` yielded an RP-LC retention time of 1190 s.

As for `Cc1cccc(C(=O)NCc2nn(C)c3ccccc23)c1`, the RP-LC retention time was 814 s.

In the case of `CC(C)CC[C@@H](O)[C@](C)(O)C1CC[C@@]2(O)C3=CC(=O)[C@]4(O)C[C@@H](O)[C@@H](O)C[C@]4(C)C3[C@H](O)C[C@]12C` (stereo partly drawn), the RP-LC retention time was 638 s.

The compound `CCc1nnc(-c2nnc(NCCOc3ccccc3OC)c3ccccc23)o1` came in with an RP-LC retention time of 790 s.

In the case of `CCc1ccccc1NC(=O)N1CCC2(CC1)NC(=O)c1ccccc1N2C`, the RP-LC retention time stood at 731 s.

With `O=C(COc1cccc2c(=O)[nH]ccc12)c1ccccc1`, the RP-LC retention time was 806 s.

As for `CCOc1ccc(C(=O)N2CCC3(CC2)N=C(c2ccccc2)NO3)cc1`, the RP-LC retention time is 799 s.

`CC(C(=O)NCc1ccco1)C1CCOCC1` (stereo not drawn): the RP-LC retention time is 644 s.

As for `O=C(c1cccc(Br)c1)N1CCC2(C1)C(=O)Nc1ccccc12` (stereo not drawn), the RP-LC retention time amounted to 773 s.

`O=C(Cn1ccnc1-c1ccnc(N2CCSCC2)c1)NC1CCCC1` showed an RP-LC retention time of 619 s.

In turn, `Fc1ccc(-c2noc(Cc3nc(-c4cccc(Cl)c4)cs3)n2)cc1` showed an RP-LC retention time of 1350 s.

`CN1C(=O)c2cccnc2Sc2cc(NC(=O)c3ccccc3Cl)ccc21`: the RP-LC retention time is 781 s.

For the compound `CC1=C(c2ccc(Cl)cc2)S(=O)(=O)N=C1N1CCCN(C(=O)c2cccs2)CC1`, the RP-LC retention time came to 840 s.

For `O=C(Cc1ccsc1)N1CCCn2nc(-c3ccc(Cl)cc3)cc2C1`, the RP-LC retention time turned out to be 931 s.

`CC(C)n1c(CCNC(=O)c2ccccc2Cl)nc2cccnc21`: the RP-LC retention time was found to be 651 s.

`Cc1csc(-c2cc(S(=O)(=O)N(C)Cc3ccco3)c(C)n2C)n1`: the RP-LC retention time was found to be 1000 s.

Regarding `Cc1ccc(C)c(CNC(=O)C2CCc3nc(N4CCCC4)ncc3C2)c1` (stereo not drawn), the RP-LC retention time amounted to 691 s.

On to `COc1cccc(N2CCN(C3=Nc4c(F)cccc4[C@H](CC(=O)O)N3c3cc(C(F)(F)F)ccc3OC)CC2)c1`, for which the RP-LC retention time worked out at 899 s.

For the compound `CCCCOc1ccc(NC(=O)c2cc(=O)c3ccc(C)cc3o2)c2cccnc12`, the RP-LC retention time turned out to be 722 s.

Regarding `O=C(NCCN1CCOCC1)c1ccc2ccnc(N3CCN(C(=O)c4ccco4)CC3)c2c1`, the RP-LC retention time amounted to 567 s.
